In the supplement of paper PMC10307832:

Key:
Experiment in all cases: relative viability (nuclei count vs DMSO), 5 days (fraction); higher = more cells survive
Carfilzomib + Bortezomib = compound: CC(C)C[C@H](NC(=O)[C@H](CCc1ccccc1)NC(=O)CN1CCOCC1)C(=O)N[C@@H](Cc1ccccc1)C(=O)N[C@@H](CC(C)C)C(=O)[C@@]1(C)CO1 [Carfilzomib] + CC(C)C[C@H](NC(=O)[C@H](Cc1ccccc1)NC(=O)c1cnccn1)B(O)O [Bortezomib] (partner 0.002 µM)
How it was run: (§1)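 Relative viability was taken as the ratio of nuclei in treated wells to nuclei in vehicle wells. Lung cancer cell lines in 1536-well plates received compounds by pin tool one day after seeding, either one drug alone or a fixed anchor-drug dose plus five library-drug doses (not always all listed) in √10 steps. Nuclei were counted on 4× images after 5 days of treatment, and values are medians of duplicate plates.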

Carfilzomib + Tozasertib = compound: CC(C)C[C@H](NC(=O)[C@H](CCc1ccccc1)NC(=O)CN1CCOCC1)C(=O)N[C@@H](Cc1ccccc1)C(=O)N[C@@H](CC(C)C)C(=O)[C@@]1(C)CO1 [Carfilzomib] + Cc1cc(Nc2cc(N3CCN(C)CC3)nc(Sc3ccc(NC(=O)C4CC4)cc3)n2)n[nH]1 [Tozasertib] (partner 0.1 µM)
How it was run: as §1

Crizotinib + Tozasertib = compound: C[C@@H](Oc1cc(-c2cnn(C3CCNCC3)c2)cnc1N)c1c(Cl)ccc(F)c1Cl [Crizotinib] + Cc1cc(Nc2cc(N3CCN(C)CC3)nc(Sc3ccc(NC(=O)C4CC4)cc3)n2)n[nH]1 [Tozasertib] (partner 0.1 µM)
How it was run: as §1

Olaparib + Bortezomib = compound: O=C(c1cc(Cc2n[nH]c(=O)c3ccccc23)ccc1F)N1CCN(C(=O)C2CC2)CC1 [Olaparib] + CC(C)C[C@H](NC(=O)[C@H](Cc1ccccc1)NC(=O)c1cnccn1)B(O)O [Bortezomib] (partner 0.002 µM)
How it was run: as §1

Cell Line	relative viability (Carfilzomib + Bortezomib; first compound 0.001 µM)	relative viability (Carfilzomib + Bortezomib; first compound 0.003162 µM)	relative viability (Carfilzomib + Bortezomib; first compound 0.01 µM)	relative viability (Carfilzomib + Bortezomib; first compound 0.03162 µM)	relative viability (Carfilzomib + Bortezomib; first compound 0.1 µM)	relative viability (Carfilzomib + Tozasertib; first compound 0.001 µM)	relative viability (Carfilzomib + Tozasertib; first compound 0.003162 µM)	relative viability (Carfilzomib + Tozasertib; first compound 0.01 µM)	relative viability (Carfilzomib + Tozasertib; first compound 0.03162 µM)	relative viability (Carfilzomib + Tozasertib; first compound 0.1 µM)	relative viability (Crizotinib + Tozasertib; first compound 0.01 µM)	relative viability (Crizotinib + Tozasertib; first compound 0.03162 µM)	relative viability (Crizotinib + Tozasertib; first compound 0.1 µM)	relative viability (Crizotinib + Tozasertib; first compound 0.3162 µM)	relative viability (Crizotinib + Tozasertib; first compound 1 µM)	relative viability (Olaparib + Bortezomib; first compound 0.08 µM)	relative viability (Olaparib + Bortezomib; first compound 0.253 µM)	relative viability (Olaparib + Bortezomib; first compound 2.53 µM)	relative viability (Olaparib + Bortezomib; first compound 8 µM)
201T	1.09	1.06	1.1	1.09	0.732	0.957	1	1.04	0.993	0.754	0.924	0.947	0.921	0.927	0.978	1.19	1.03	1.11	1.07
A-427	0.995	0.963	0.727	0.436	0.131	0.207	0.236	0.198	0.099	0.103	0.17	0.199	0.215	–	0.212	1.03	0.96	0.877	0.673
ABC-1	0.334	0.231	0.242	0.27	0.225	0.196	0.193	0.196	0.212	0.211	–	0.196	0.16	0.177	0.186	0.308	0.332	0.323	0.33
BEN	0.518	0.929	0.883	0.485	0.281	0.554	0.547	0.591	0.553	0.421	0.452	0.55	0.53	0.414	0.446	0.651	0.632	0.881	0.829
CAL-12T	–	1.17	1.13	0.691	0.195	0.313	0.393	0.333	0.251	0.125	0.331	0.254	0.384	–	0.3	1.16	0.842	1.04	1.03
COR-L23	0.94	0.877	0.253	0.0785	0.0696	0.216	0.319	0.216	0.0505	0.0802	0.21	0.191	0.22	0.195	0.194	1.06	0.862	0.92	0.474
COR-L 105	0.724	0.658	0.527	0.265	0.239	0.328	0.311	0.411	0.263	0.225	0.331	0.361	0.367	0.326	0.344	0.936	0.85	0.464	0.426
Calu-6	0.886	0.713	0.299	0.119	0.106	–	–	–	–	–	–	–	–	–	–	1.13	0.959	0.796	0.777
ChaGo-K-1	–	1.25	0.851	0.501	0.381	0.207	0.236	0.224	0.225	0.157	0.24	0.222	0.222	0.209	0.246	1.27	0.96	1.02	0.845
EBC-1	0.524	0.317	0.149	0.119	0.168	–	–	–	–	–	–	–	–	–	–	0.654	0.541	0.523	0.472
EKVX	1.03	1.08	1.14	0.285	0.345	0.346	0.432	0.435	0.34	0.281	0.392	0.398	0.426	0.349	0.405	1.42	0.987	0.995	0.994
EMC-BAC-2	1.03	1.06	1.07	0.66	0.448	0.284	0.298	0.305	0.212	0.194	0.326	0.281	0.304	0.285	0.275	1.09	1.04	1.07	0.967
EPLC-272H	0.738	0.626	0.655	0.105	0.0698	0.282	0.25	0.317	0.105	0.0498	0.204	0.26	0.385	0.232	0.306	1.1	0.819	0.965	0.848
H3255	0.765	0.769	0.841	0.315	0.179	0.697	0.604	0.686	0.737	0.392	0.71	0.637	0.791	0.599	0.655	0.935	0.728	0.703	0.728
HARA	1.2	1.05	0.394	0.0539	0.0619	0.11	0.106	0.117	0.0557	0.0586	0.106	0.079	0.1	–	0.116	1.25	1.04	1.06	0.769
HCC-15	0.979	0.978	1.01	0.481	0.0765	0.385	0.393	0.385	0.356	0.0753	0.408	0.377	0.389	–	0.339	1.18	0.984	1.03	0.9
HCC-44	0.876	0.917	0.897	0.552	0.147	0.826	1.05	1.22	0.303	0.157	0.936	–	0.992	0.836	1.01	0.915	0.873	0.952	0.893
HCC-78	0.474	0.514	0.402	0.192	0.193	0.356	0.61	0.401	0.358	0.287	–	0.47	0.419	0.391	0.442	0.489	0.545	0.496	0.537
